Some results are limits rather than exact numbers.

The target in one assay is T1, hmGluR1 receptor (Homo sapiens, UniProt Q13255).
T1 construct: expressed in transfected cells; host or cells: CHO
T1 sequence (Q13255 19-1194): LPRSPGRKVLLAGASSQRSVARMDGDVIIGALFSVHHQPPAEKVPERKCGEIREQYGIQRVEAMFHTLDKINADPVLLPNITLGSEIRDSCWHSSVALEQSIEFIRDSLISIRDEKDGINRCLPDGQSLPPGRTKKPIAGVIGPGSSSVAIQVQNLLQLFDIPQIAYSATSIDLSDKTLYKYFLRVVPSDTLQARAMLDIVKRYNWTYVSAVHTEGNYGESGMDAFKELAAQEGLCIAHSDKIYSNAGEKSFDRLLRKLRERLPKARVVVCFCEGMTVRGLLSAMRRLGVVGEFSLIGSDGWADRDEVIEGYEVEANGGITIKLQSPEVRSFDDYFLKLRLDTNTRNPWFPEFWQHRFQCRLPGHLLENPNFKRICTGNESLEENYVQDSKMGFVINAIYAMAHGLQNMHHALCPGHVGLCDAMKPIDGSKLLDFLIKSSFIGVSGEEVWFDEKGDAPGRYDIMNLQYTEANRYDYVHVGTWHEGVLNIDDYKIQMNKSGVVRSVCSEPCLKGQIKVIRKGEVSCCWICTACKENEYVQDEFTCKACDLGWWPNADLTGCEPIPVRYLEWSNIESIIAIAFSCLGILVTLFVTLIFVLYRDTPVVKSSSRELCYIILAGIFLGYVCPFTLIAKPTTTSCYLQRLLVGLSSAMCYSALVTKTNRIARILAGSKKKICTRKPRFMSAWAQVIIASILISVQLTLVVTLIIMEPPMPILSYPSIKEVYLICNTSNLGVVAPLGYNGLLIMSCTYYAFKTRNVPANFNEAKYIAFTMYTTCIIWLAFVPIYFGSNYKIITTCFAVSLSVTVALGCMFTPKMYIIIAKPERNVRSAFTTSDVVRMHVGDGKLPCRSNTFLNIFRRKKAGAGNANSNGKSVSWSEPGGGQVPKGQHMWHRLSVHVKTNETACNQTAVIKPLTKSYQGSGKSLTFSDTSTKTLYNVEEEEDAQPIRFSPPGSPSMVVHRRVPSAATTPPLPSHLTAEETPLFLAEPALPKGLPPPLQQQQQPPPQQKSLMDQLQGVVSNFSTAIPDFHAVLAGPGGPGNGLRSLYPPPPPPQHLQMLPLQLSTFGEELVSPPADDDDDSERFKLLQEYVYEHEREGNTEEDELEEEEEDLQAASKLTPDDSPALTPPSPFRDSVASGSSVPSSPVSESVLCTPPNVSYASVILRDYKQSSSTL
Briefly: mGluR1 IC50 determination, FLIPR intracellular calcium mobilization against Quisqualate. It is filed as cell-based. The conditions noted are these: CHO cell line stably expressing hmGluR1; against Quisqualate 1 μM (EC80); compounds added 10 minutes before; read-out: mGluR1 IC50. The procedure: A CHO cell line stably expressing hmGluR1 receptor was established. One day prior to assay, cells were split in growth media at concentration of 50,000 cells/well in a volume of 100 μl and seeded into black clear-bottom 96-well plates. After two to six hours, when cells were well attached to the plate, growth medium was replaced with assay medium (100 μL) consisting of DMEM high glucose, supplemented with GPT (1 U/mL) and sodium pyruvate, 1 mM. Following overnight incubation, medium was discarded and cells were loaded for 2 hours with dye from the Calcium 3 Assay Reagent Kit (Molecular Devices, # R8033), prepared according to manufacturers' instructions. […] Test compounds were added 10 minutes before Quisqualate.
In the case of `COc1ccnc2sc3c(=O)n(-c4ccc(C)cc4)ccc3c12` [16C], the IC50 was 3.9 nM.

For the compound `COc1ccc(-n2ccc3c(sc4nccc(NC5CC5)c43)c2=O)cc1F` [19AV], the IC50 turned out to be 9.8 nM.

For `COc1ccnc2sc3c(=O)n(-c4ccc(Cl)cc4)ccc3c12` [16B], the IC50 stood at 3.4 nM.

Regarding `COc1ccnc2sc3c(=O)n(-c4ccc(Br)cc4)ccc3c12` [16E], the IC50 was determined as 4.8 nM.

Staying with this assay, now noted: CHO cell line stably expressing hmGluR1; against Quisqualate 1 μM (EC80); compounds added 10 minutes before; read-out: mGluR1 IC50 rating.
On to `O=c1c2sc3nccc(O)c3c2ccn1-c1ccc(Cl)cc1` [17B], for which the IC50 lay in the range of 100 to 1000 nM.

Regarding `COc1ccc(-n2ccc3c(sc4nccc(N(C)N)c43)c2=O)cc1` [19U], the IC50 is under 20 nM.

For the compound `COc1ncnc2sc3c(=O)n(-c4ccc(Cl)cc4)ccc3c12` [23C], the IC50 was 20 to 100 nM.

Regarding `O=c1c2sc3nccc(NCC(F)(F)F)c3c2ccn1-c1ccc(Cl)cc1` [19I], the IC50 is 20 to 100 nM.

For `O=c1c2sc3nccc(NC4CC4)c3c2ccn1-c1ccc2scnc2c1` [19AR], the IC50 fell in the range of 20 to 100 nM.

In the case of `CCNc1ccnc2sc3c(=O)n(-c4ccc(C#N)cc4)ccc3c12` [19BB], the IC50 lay in the range of 20 to 100 nM.

Take `COc1ccnc2sc3c(=O)n(-c4ccc5c(c4)OCO5)ccc3c12` [16O]: the IC50 was under 20 nM.

Turning to `Cc1ccc(-n2ccc3c(sc4nccc(O)c43)c2=O)cc1` [17C], the IC50 lay within 100 to 1000 nM.

Turning to `COc1ccnc2sc3c(=O)n(-c4ccc5ncsc5c4)ccc3c12` [16F], the half-maximal inhibitory concentration (IC50) fell in the range of 20 to 100 nM.

For `COc1ccnc2sc3c(=O)n(-c4ccccc4Cl)ccc3c12` [16U], the IC50 was 20 to 100 nM.

`COc1ccnc2sc3c(=O)n(-c4cccc(Cl)c4)ccc3c12` [16R]: the half-maximal inhibitory concentration (IC50) is under 20 nM.

With `COCCCNc1ccnc2sc3c(=O)n(-c4ccc(Cl)cc4)ccc3c12` [19H], the IC50 lay in the range of 20 to 100 nM.

Consider `COc1ccnc2sc3c(=O)n(-c4ccc(F)cc4)ccc3c12` [16H], for which the IC50 was under 20 nM.

Take `COc1ncnc2sc3c(=O)n(-c4ccc(C)cc4)ccc3c12` [23A]: the IC50 is under 20 nM.

On to `COc1ccc(-n2ccc3c(sc4nccc(OC)c43)c2=O)cc1F` [16I], for which the IC50 was under 20 nM.

Turning to `C#CCNc1ccnc2sc3c(=O)n(-c4ccc(Br)cc4)ccc3c12` [19AZ], the IC50 was under 20 nM.

With `C#CCNc1ccnc2sc3c(=O)n(-c4ccc(C)cc4)ccc3c12` [19AG], the IC50 is under 20 nM.

Consider `COc1ccc(-n2ccc3c(sc4nccc(NCC(F)(F)F)c43)c2=O)cc1` [19S], for which the IC50 was 20 to 100 nM.

Regarding `O=c1c2sc3nccc(NCCO)c3c2ccn1-c1ccc(Cl)cc1` [19F], the IC50 was under 20 nM.

`Cc1ccc(-n2ccc3c(sc4nccc(NC[C@@H](C)O)c43)c2=O)cc1` [19M]: the IC50 was in the range of 20 to 100 nM.

For the compound `O=c1c2sc3nccc(NC4CC4)c3c2ccn1-c1ccc(F)cc1` [19AM], the IC50 is 20 to 100 nM.

As to `Cc1ccc(-n2ccc3c(sc4nccc(N)c43)c2=O)cc1` [19AC], the IC50 lay within 20 to 100 nM.

On to `COc1ccnc2sc3c(=O)n(-c4ccc5c(c4)OCCO5)ccc3c12` [16P], for which the IC50 lay within 20 to 100 nM.

For the compound `C#CCNc1ccnc2sc3c(=O)n(-c4ccc(F)cc4)ccc3c12` [19AN], the IC50 fell in the range of 20 to 100 nM.

Consider `COCCNc1ccnc2sc3c(=O)n(-c4ccc(Cl)cc4)ccc3c12` [19G], for which the IC50 was 20 to 100 nM.

Take `COCCNc1ccnc2sc3c(=O)n(-c4ccc(C)cc4)ccc3c12` [19C]: the IC50 is 20 to 100 nM.

As for `COc1ccnc2sc3c(=O)n(-c4ccc(C#N)cc4)ccc3c12` [16X], the IC50 was 20 to 100 nM.

`COc1ccc(-n2ccc3c(sc4ncnc(OC)c43)c2=O)cc1` [23B]: the IC50 is 100 to 1000 nM.

As for `CN(C)c1ccnc2sc3c(=O)n(-c4ccc(O)cc4)ccc3c12` [9H], the IC50 was under 20 nM.

For `COc1ccc(-n2ccc3c(sc4nccc(NC5CC5)c43)c2=O)c(F)c1` [19BH], the IC50 was in the range of 20 to 100 nM.

In the case of `C#CCNc1ccnc2sc3c(=O)n(-c4ccc(Cl)cc4)ccc3c12` [19AE], the IC50 is under 20 nM.

Take `COc1ccnc2sc3c(=O)n(-c4ccc(C)cc4)ccc3c12` [16C]: the IC50 was under 20 nM.

As for `COc1ccc(-n2ccc3c(sc4nccc(NCCCCCO)c43)c2=O)cc1` [19AH], the IC50 lay in the range of 20 to 100 nM.

For `COc1ccc(-n2ccc3c(sc4nccc(NC5CC5)c43)c2=O)cc1F` [19AV], the IC50 is under 20 nM.

For the compound `COc1ccnc2sc3c(=O)n(-c4ccccc4)ccc3c12` [16M], the IC50 was under 20 nM.

Take `N#Cc1ccc(-n2ccc3c(sc4nccc(NC5CC5)c43)c2=O)cc1` [19BC]: the IC50 was in the range of 20 to 100 nM.

On to `C#CCNc1ccnc2sc3c(=O)n(-c4ccc(OC)c(F)c4)ccc3c12` [19AO], for which the IC50 fell in the range of 100 to 1000 nM.

Take `COc1ccnc2sc3c(=O)n(-c4ccc(Cl)cc4)ccc3c12` [16B]: the IC50 was under 20 nM.

For `Cc1ccc(-n2ccc3c(sc4nccc(NCC(F)(F)F)c43)c2=O)cc1` [19R], the IC50 is 20 to 100 nM.

For `COc1ccnc2sc3c(=O)n(-c4ccc5scnc5c4)ccc3c12` [16G], the IC50 was under 20 nM.

Turning to `CCNc1ccnc2sc3c(=O)n(-c4ccc(OC)c(F)c4)ccc3c12` [19AU], the IC50 is under 20 nM.

Turning to `COc1ccc(-n2ccc3c(sc4nccc(NCCCCO)c43)c2=O)cc1` [19AA], the IC50 lay within 20 to 100 nM.

For `COc1ccnc2sc3c(=O)n(-c4cccc(C)c4)ccc3c12` [16T], the IC50 is under 20 nM.

Regarding `CCNc1ccnc2sc3c(=O)n(-c4ccc(OC)cc4F)ccc3c12` [19BG], the IC50 was in the range of 20 to 100 nM.

Consider `COc1ccnc2sc3c(=O)n(-c4ccc5occc5c4)ccc3c12` [16Q], for which the IC50 was under 20 nM.

For `COc1ccnc2sc3c(=O)n(-c4ccc(Br)cc4)ccc3c12` [16E], the IC50 was under 20 nM.

For `CCNc1ccnc2sc3c(=O)n(-c4ccc(F)cc4)ccc3c12` [19AL], the IC50 was 20 to 100 nM.

`COCCNc1ccnc2sc3c(=O)n(-c4ccc(O)cc4)ccc3c12` [19J]: the IC50 was over 1000 nM.

Take `Cc1ccc(-n2ccc3c(sc4nccc(NCCO)c43)c2=O)cc1` [19L]: the concentration for half-maximal inhibition (IC50) is 20 to 100 nM.

As for `CCNc1ccnc2sc3c(=O)n(-c4ccc5scnc5c4)ccc3c12` [19AQ], the IC50 lay within 20 to 100 nM.

Regarding `C#CCNc1ccnc2sc3c(=O)n(-c4ccc(OC)cc4)ccc3c12` [19X], the IC50 was 20 to 100 nM.

Regarding `C[C@@H](O)CNc1ccnc2sc3c(=O)n(-c4ccc(Cl)cc4)ccc3c12` [19E], the IC50 was in the range of 20 to 100 nM.

For `COCCCNc1ccnc2sc3c(=O)n(-c4ccc(OC)cc4)ccc3c12` [19W], the IC50 fell in the range of 20 to 100 nM.

In the case of `COc1ccc(-n2ccc3c(sc4nccc(NCCCO)c43)c2=O)cc1` [19Y], the IC50 fell in the range of 20 to 100 nM.
